The source of these data is ChEMBL document CHEMBL1150258, “Predicting binding modes from free energy calculations” (J Med Chem, 2008).

Molecules are shown by their SMILES.

The target in this experiment is Human immunodeficiency virus type 1 reverse transcriptase (Human immunodeficiency virus 1, UniProt Q72547). Briefly: Inhibition of HIV1 reverse transcriptase in […]. The class given is cell-based.
Broadly, the IC50 is the point on the concentration scale where inhibition reaches its midpoint. Low readings indicate greater potency in that assay, high ones weaker potency in that assay. The compound `CCCNc1c(Cc2cc(C)cc(C)c2)c(CC)c(C)[nH]c1=O` returned an IC50 of 20 nM. This counts as double-digit nanomolar.
As to `CCCCN(CCCC)c1c(Cc2cc(C)cc(C)c2)c(CC)c(C)[nH]c1=O`, the IC50 is 50100 nM.
As to `CCNC(=S)Nc1c(Cc2cccc(C)c2)c(CC)c(C)[nH]c1=O`, the IC50 is 25100 nM.
Compound `CCc1c(C)[nH]c(=O)c(NC)c1Cc1cc(C)cc(C)c1` gave an IC50 of 10 nM.
The value for `CCc1c(C)[nH]c(=O)c(NC=O)c1Cc1cc(C)cc(C)c1` was 79 nM; that for `CCc1c(C)[nH]c(=O)c(NCc2ccccc2)c1Cc1cc(C)cc(C)c1` was 251 nM.
For `CCc1c(C)[nH]c(=O)c(-n2cccc2)c1Cc1cc(C)cc(C)c1`, inhibition was half-maximal at 12.6 nM (IC50).
The value for `CCc1c(C)[nH]c(=O)c(NC(C)=O)c1Cc1cc(C)cc(C)c1` was 398 nM; that for `CCc1c(C)[nH]c(=O)c(N(C)CCOC)c1Cc1cccc(/C=C/C#N)c1` was 1 nM; that for `CCc1c(C)[nH]c(=O)c(N(C)CCCC#N)c1Cc1cccc(C)c1` was 5 nM.
The value for `CCOCCN(C)c1c(Cc2cccc(C)c2)c(CC)c(C)[nH]c1=O` was 13 nM; that for `CCc1c(C)[nH]c(=O)c(N(CC)CC)c1Cc1cc(C)cc(C)c1` was 16 nM; that for `CCc1c(C)[nH]c(=O)c(N(Cc2ccccc2)Cc2ccccc2)c1Cc1cc(C)cc(C)c1` was 100000 nM.
The compound `CCc1c(C)[nH]c(=O)c(N2CCCCC2)c1Cc1cc(C)cc(C)c1` showed a half-maximal inhibitory concentration (IC50) of 631 nM.
For `CCc1c(C)[nH]c(=O)c(N(C)CCOC)c1Cc1cccc(C)c1`, the concentration for half-maximal inhibition (IC50) was 1 nM. This IC50 lies about 630-fold lower than the previous one.
With `CCCC(=O)Nc1c(Cc2cc(C)cc(C)c2)c(CC)c(C)[nH]c1=O`, the half-maximal inhibitory concentration (IC50) was determined as 100000 nM.
The value for `CCc1c(C)[nH]c(=O)c(N(C)CCCO)c1Cc1cccc(C)c1` was 3 nM; that for `CCc1c(C)[nH]c(=O)c(N(C)CCC#N)c1Cc1cccc(C)c1` was 16 nM.
The value for `CCC(=O)Nc1c(Cc2cc(C)cc(C)c2)c(CC)c(C)[nH]c1=O` was 3980 nM; that for `CCc1c(C)[nH]c(=O)c(N(C)CC)c1Cc1cccc(/C=C/C#N)c1` was 1 nM.
The value for `CCCN(C)c1c(Cc2cc(C)cc(C)c2)c(CC)c(C)[nH]c1=O` was 16 nM; that for `CCCCNc1c(Cc2cc(C)cc(C)c2)c(CC)c(C)[nH]c1=O` was 126 nM; that for `CCc1c(C)[nH]c(=O)c(N(C)CCCCCO)c1Cc1cccc(C)c1` was 10 nM.
The compound `CCc1c(C)[nH]c(=O)c(N(C)CCOC)c1Cc1cc(C)cc(C)c1` came in with a half-maximal inhibitory concentration (IC50) of 2 nM. This IC50 is about 5-fold lower than that of the compound before.
As for `CCc1c(C)[nH]c(=O)c(N(C)CC)c1Cc1cc(C)cc(C)c1`, the IC50 is 8 nM. This IC50 lies about 4-fold higher than the previous one.
The value for `CCc1c(C)[nH]c(=O)c(N(C)CCCSC)c1Cc1cc(C)cc(C)c1` was 25 nM; that for `CCc1c(C)[nH]c(=O)c(N2CCOCC2)c1Cc1cc(C)cc(C)c1` was 158 nM; that for `CCc1c(C)[nH]c(=O)c(NC(=S)Nc2ccccc2)c1Cc1cccc(C)c1` was 3160 nM.
`CCc1c(C)[nH]c(=O)c(N(C)C(C)COC)c1Cc1cc(C)cc(C)c1` (centres undefined): half-maximal inhibition (IC50) required 6 nM.
`CCNc1c(Cc2cc(C)cc(C)c2)c(CC)c(C)[nH]c1=O`: the concentration for half-maximal inhibition (IC50) came to 16 nM.
`CCc1c(C)[nH]c(=O)c(N(C)CCCCCO)c1Cc1cc(C)cc(C)c1` came in with an IC50 of 4 nM. Against the preceding compound, the IC50 is about 4-fold lower.
Regarding `CCc1c(C)[nH]c(=O)c(N(C)CC#N)c1Cc1cccc(C)c1`, the IC50 came to 4 nM.
Next, `CCc1c(C)[nH]c(=O)c(N(C)CCO)c1Cc1cccc(C)c1`: 5 nM; `CCc1c(C)[nH]c(=O)c(NC(N)=S)c1Cc1cccc(C)c1`: 316 nM.
